In patent publication US20170216252A1, “ANTI-BACTERIAL PYRUVATE KINASE MODULATOR COMPOUNDS, COMPOSITIONS, USES AND METHODS” (SIMON FRASER UNIVERSITY, priority 2014, published 2017):
≈ marks a conversion by molar mass, not a printed value. Like-named read-outs stand apart in the source and are kept apart here.

How the values were obtained:
MRSA PK = target: T1, MRSA PK (Staphylococcus aureus, UniProt Q6GG09); assay: MRSA PK activity, continuous LDH-coupled assay; assay type: biochemical, S. aureus (MRSA strain Sanger 252); conditions: for inhibition at 10 µM / inhibition at 1 µM: read-out: % inhibition at the highest concentration tested (IC50)
T1 construct: His tag (pET-28a(+) vector) (N); made in house; host or cells: E. coli BL-21 (DE3)
Text: Genomic DNA of MRSA strain Sanger 252 extracted using DNeasy Tissue Kit™ (Qiagen™) was used as a template to generate the His-tagged MRSA PK. Human cDNA from MCF-7 breast cancer cell line (courtesy of Dr. J Wong, BC Cancer Research Center (Vancouver, Canada) was used as a template to generate the full-length human M2 PK enzyme. The following primer sets were used creating appropriate restriction sites (NdeI and XhoI sites underlined): For cloning of MRSA PK: M27F 5′-[…]-3′ and M27R 5′-[…]-3′, for cloning of human M2 PK isoform: hM2F 5′-[…]-3′ and hM2R 5′-[…]-3′. The resulting PCR fragments for each construct were cloned into the NdeI and XhoI unique sites of the bacterial expression vector pET-28a (+) (Novagen™). […] The sequence and the correct reading frame of all constructs were verified by sequencing. Human M1, R and L PK constructs in pET-28-a(+) vectors (courtesy of Dr. L. Cantley, Harvard Medical, School (Boston, USA)) were used to generate relevant recombinant His-tagged human PK isoforms.
MRSA and human constructs in pET-28a(+) were used to express relevant recombinant PK proteins in E. coli BL-21 (DE3). The proteins were expressed and purified using Ni-NTA agarose (Qiagen™) according to the manufacturer's protocol. Briefly, cells were grown to an absorbance of 0.4-0.5 at 600 nm in 2×YT medium, then induced with 0.1 mM IPTG for 3 h at 20° C. Cells were lysed by sonication on ice (3×10-s bursts with a 30-s recovery between bursts) in lysis buffer (0.2 mg/ml lysozyme, 50 mM Tris pH 7.5, 10 mM MgCl2, 200 mM NaCl, 100 mM KCl, 10% glycerol, 10 mM imidazole, 0.5% NP-40 and 1 mM DTT containing Complete™ protease inhibitor). Cell lysates were cleared by centrifugation (18,000×g in a Beckman™ JA-20 rotor) for 20 min at 4° C. and PK isoforms were purified by batch binding to Ni-NTA resin. The resins were then packed in columns (1×2 cm) and washed with 400 column volumes lysis buffer containing 30 mM imidazole. His-tagged PK isoforms were eluted with the same buffer containing 300 mM imidazole. The proteins were dialyzed overnight at 4° C. against 2000 volumes of ice-cold 30 mM Tris pH 7.5, 25 mM KCl, 5 mM MgCl2, 10% glycerol and 1 mM DTT to remove imidazole. All purification steps were done at 4° C.; enzymes were flash-frozen and stored at −70° C. […] Purity and physical integrity of proteins were assessed using SDS-polyacrylamide gel electrophoresis (SDS-PAGE) followed by coomassie blue staining. Protein concentration was estimated by Bradford assay (Bio-Rad Protein Assay™) using bovine serum albumin as a standard.
Candidate MRSA PK inhibitors were assayed for their ability to inhibit enzymatic activities of MRSA and human PKs. PK activity was determined using a continuous assay coupled to lactate dehydrogenase (LDH) in which the change in absorbance at 340 nm owing to oxidation of NADH was measured using a Benchmark Plus™ microplate spectrophotometer (Bio-Rad Laboratories, Hercules, Calif.). […] Reactions were initiated by the addition of 15 nM of one of the PK enzymes. PK activity proportional to the rate of change at 340 nm was expressed as specific activity (μmol/min/mg), which is defined as the amount of PK that catalyzes the formation of one micromole of either product per minute. Inhibitors were dissolved in DMSO with the final concentration of the solvent never exceeding 1% of the assay volume. IC50 values were calculated by curve fitting on a four-parameter dose-response model with variable slope using Graphpad Prism 5.0™ (GraphPad™ Software Inc., La Jolla, Calif.). […] Reactions were performed at 30° C. for up to 5 min. All values determined represent at least two measurements, in triplicate (Tables 1-6) or duplicate unless mentioned otherwise.

S. aureus ATCC 29213 = assay: In vitro susceptibility, broth microdilution MIC; assay type: cell-based, Staphylococcus aureus
Protocol: The antimicrobial activities of PK inhibitor candidates were determined using the 96-well microtiter standard 2-fold serial broth microdilution method as described by CLSI (formerly NCCLS) with the various gram-positive and gram-negative bacteria species mentioned above. Bacteria from a single colony were grown, overnight in either BHI Broth (VRE), mueller hinton broth (S. aureus 29213; MRSA USA400) or L-broth (E. coli, P. aeruginosa, S. typhimuriu, K. Pneumonia and A. baumannii). […] Culture plates were incubated for 18-24 h at 37° C., and optical density at 600 nm (OD600) was measured using a Benchmark Plus™ microplate spectrophotometer (Bio-Rad™). The absorbance control values for the series containing CAMHB and inhibitor were subtracted as background from the corresponding infected wells. The MIC was defined as the lowest concentration of test compound leading to complete inhibition of cell growth in relationship to compound-free control wells as determined by optical density. […] All assays were run in triplicate (Tables 1-6) or duplicate. Experiments were replicated at least twice to verify reproducibility using the above conditions.

[1] = Staphylococcus aureus, ATCC29213, Table 8, tested at least in duplicate, differing values all given, read-out: MIC
[2] = Staphylococcus aureus, ATCC29213, Tables 1-6 and text, minimum concentration to give >98% inhibition of growth, read-out: MIC
[3] = Table 8, tested at least in duplicate, differing values all given

T1 sequence (Q6GG09 whole entry): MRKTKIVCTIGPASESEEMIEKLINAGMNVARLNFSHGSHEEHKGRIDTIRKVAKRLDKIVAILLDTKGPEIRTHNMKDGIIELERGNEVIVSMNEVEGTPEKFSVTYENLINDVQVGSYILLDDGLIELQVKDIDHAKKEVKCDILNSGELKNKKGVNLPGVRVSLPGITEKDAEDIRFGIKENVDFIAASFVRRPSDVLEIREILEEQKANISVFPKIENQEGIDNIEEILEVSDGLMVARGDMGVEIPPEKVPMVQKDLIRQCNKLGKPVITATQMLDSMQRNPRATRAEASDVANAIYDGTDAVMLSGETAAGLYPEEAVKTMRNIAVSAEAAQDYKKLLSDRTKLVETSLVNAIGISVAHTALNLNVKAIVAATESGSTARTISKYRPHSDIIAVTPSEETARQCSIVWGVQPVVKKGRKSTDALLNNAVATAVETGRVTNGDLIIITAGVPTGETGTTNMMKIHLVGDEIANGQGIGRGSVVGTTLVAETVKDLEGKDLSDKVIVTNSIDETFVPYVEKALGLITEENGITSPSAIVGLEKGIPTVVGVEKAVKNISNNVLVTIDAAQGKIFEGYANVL

| SMILES | IC50 (MRSA PK) [µM] | MIC (S. aureus ATCC 29213; [1]) [µg/mL] | MIC (S. aureus ATCC 29213; [2]) [µg/mL] | further results |
| --- | --- | --- | --- | --- |
| Brc1ccc2cc(/C=C/c3ccc4ccccc4n3)[nH]c2c1 [Compound 101, (E)-2-(2-(6-bromo-1H-indol-2-yl)vinyl)quinoline] | > 1 | > 64 | > 64 |  |
| Brc1ccc2cc(-c3ccc(-c4ccn[nH]4)s3)[nH]c2c1 [Compound 81, 2-(5-(1H-Pyrazol-5-yl)thiophen-2-yl)-6-bromo-1H-indole] | 0.0745 |  | 0.5 (≈ 1.45 µM) |  |
| Brc1ccc2cc(CSCc3ccccc3)[nH]c2c1 [Compound 149, 2-((Benzylthio)methyl)-6-bromo-1H-indole] | > 1 | > 64 |  |  |
| COc1c(Br)cccc1C(=O)Nc1nc2ccc(Br)cc2s1 [Compound 84, 3-Bromo-N-(6-bromobenzo[d]thiazol-2-yl)-2-methoxybenzamide] |  |  | > 64 | inhibition at 10 µM (MRSA PK): 84% |
| O=C(Nc1nc2ccc(Br)cc2s1)c1cccc(Cl)c1O [Compound 83, N-(6-bromobenzo[d]thiazol-2-yl)-3-chloro-2-hydroxybenzamide] |  |  | 4 (≈ 10.4 µM) | inhibition at 1 µM (MRSA PK): 89% |
| Brc1ccc(-c2cccc(-c3cc4ccccc4[nH]3)c2)cc1 [Compound 59, 2-(4′-Bromo-[1,1′-biphenyl]-3-yl)-1H-indole] |  |  | > 64 | inhibition at 10 µM (MRSA PK): 54% |
| COC(=O)c1cc(Br)cc2[nH]c(-c3cc4c(C(=O)OC)cc(Br)cc4[nH]3)cc12 [Compound 163, Dimethyl 6,6′-dibromo-1H,1′H-[2,2′-biindole]-4,4′-dicarboxylate] | 0.05 to 0.1 | > 64 |  |  |
| Clc1cc(Cl)cc(/C=C/c2cc3ccc(Br)cc3[nH]2)c1 [Compound 95, (E)-6-Bromo-2-(3,5-dichlorostyryl)-1H-indole] | < 0.05 | 7.1 (≈ 19.3 µM) |  | MIC (S. aureus ATCC 29213; [3]): 8 µg/mL (≈ 21.8 µM) |
| O=C(O)c1c(-c2cc3cc(Cl)ccc3[nH]2)[nH]c2cc(Br)ccc12 [Compound 162, 6-bromo-5′-chloro-1H,1′H-[2,2′-biindole]-3-carboxylic acid] | < 0.05 | 4 (≈ 10.3 µM) |  |  |
| CC(=O)c1c(CCc2cn3c(n2)CCCC3)[nH]c2cc(Br)ccc12 [Compound 127, 1-(6-Bromo-2-(2-(5,6,7,8-tetrahydroimidazo[1,2-a]pyridin-2-yl)ethyl)-1H-indol-3-yl)ethan-1-one] | > 100 | 64 (≈ 166 µM) |  |  |
| Clc1ccc(CCc2nc3ccc(Br)cc3[nH]2)cc1 [Compound 154, 6-bromo-2-(4-chlorophenethyl)-1H-benzo[d]imidazole] | > 1 | 16 (≈ 47.7 µM) |  | MIC (S. aureus ATCC 29213; [3]): 32 µg/mL (≈ 95.3 µM) |
| O=C(Nc1nc2ccc(Br)cc2s1)c1cc(Br)ccc1O [Compound 51, 5-Bromo-N-(6-bromobenzo[d]thiazol-2-yl)-2-hydroxybenzamide] |  |  | > 64 | IC50 (MRSA PK; Tables 1-6, 2 mM ADP, 10 mM PEP, 15 nM PK, read-out: IC50): 0.003 µM |
| Brc1ccc2cc(-c3ccc(-c4cc5ccc(Br)cc5[nH]4)nn3)[nH]c2c1 [Compound 49, 3,6-bis(6-Bromo-1H-indol-2-yl)pyridazine] |  |  | > 32 | inhibition at 10 µM (MRSA PK): 70% |
| Brc1ccc(-c2cncc(-c3cc4ccccc4[nH]3)n2)cc1 [Compound 60, 2-(6-(4-Bromophenyl)pyrazin-2-yl)-1H-indole] |  |  | > 64 | inhibition at 10 µM (MRSA PK): 79% |
| O=C(c1cc2ccc(Br)cc2[nH]1)c1cc2ccccc2cc1O [Compound 42, (6-Bromo-1H-indol-2-yl)(3-hydroxynaphthalen-2-yl)methanone] |  |  | > 64 | inhibition at 10 µM (MRSA PK): 72% |
| Brc1ccc(-c2cc3ccc(Br)cc3[nH]2)cc1 [Compound 55, 6-bromo-2-(4-bromophenyl)-1H-indole] | 0.0569 |  | > 64 |  |
| COC(=O)c1c(C(=O)Nc2ccc(OC)cc2)[nH]c2cc(Br)ccc12 [Compound 133, Methyl 6-bromo-2-((4-methoxyphenyl)carbamoyl)-1H-indole-3-carboxylate] | < 0.05 | > 64 |  |  |
| O=C1c2ccc(Br)cc2C(=O)N1c1nc2ccc(Br)cc2s1 [Compound 65, 5-bromo-2-(6-bromobenzo[d]thiazol-2-yl)isoindoline-1,3-dione] |  |  | > 64 | inhibition at 10 µM (MRSA PK): 76% |
| Brc1ccc2cc(/C=C/c3cc(-c4ccccc4)on3)[nH]c2c1 [Compound 105, (E)-3-(2-(6-Bromo-1H-indol-2-yl)vinyl)-5-phenylisoxazole] | > 100 | > 64 |  |  |
| COc1ccc2[nH]c(-c3[nH]c4cc(Br)ccc4c3C(=O)C(F)(F)F)cc2c1 [Compound 179, 1-(6-bromo-5′-methoxy-1H,1′H-[2,2′-biindol]-3-yl)-2,2,2-trifluoroethan-1-one] | < 0.05 | 64 (≈ 146 µM) |  |  |
| Clc1ccc(C#Cc2cc3ccc(Br)cc3[nH]2)nc1 [Compound 141, 6-bromo-2-((5-chloropyridin-2-yl)ethynyl)-1H-indole] | 0.1 to 1 | > 64 |  |  |
| COC(=O)c1c(NCc2ccc(Cl)cc2)[nH]c2cc(Br)ccc12 [Compound 165, Methyl 6-bromo-2-(4-chlorobenzylamino)-1H-indole-3-carboxylate] | > 1 | 4 (≈ 10.2 µM) |  |  |
| COC(=O)c1c(-c2cc3cc(Br)c(Br)cc3[nH]2)[nH]c2cc(Br)c(Br)cc12 [Compound 39d] | 0.0021 |  | 4 (≈ 6.6 µM) |  |
| Clc1ccc(/C=C/c2cc3ccc(Br)cc3[nH]2)nc1 [Compound 108, (E)-6-Bromo-2-(2-(5-chloropyridin-2-yl)vinyl)-1H-indole] | 0.1 to 1 | > 64 |  |  |
| Brc1ccc2cc(/C=C/c3ccc(-n4ccnc4)cc3)[nH]c2c1 [Compound 104, (E)-2-(4-(1H-Imidazol-1-yl)styryl)-6-bromo-1H-indole] | > 1 | > 64 |  |  |
| Brc1ccc2cc(-c3ccc(-c4cc5ccc(Br)cc5[nH]4)cc3)[nH]c2c1 [Compound 33a, 1,4-bis(6-bromo-1H-indol-2-yl)benzene] |  |  | > 64 | inhibition at 1 µM (MRSA PK): 54% |
| COc1ccc(NC(=O)c2[nH]c3cc(Br)ccc3c2C(=O)O)cc1 [Compound 134, 6-Bromo-2-((4-methoxyphenyl)carbamoyl)-1H-indole-3-carboxylic acid] | < 0.05 | 64 (≈ 164 µM) |  |  |
| O=C(c1c(-c2cc3ccccc3[nH]2)[nH]c2cc(Br)ccc12)C(F)(F)F [Compound 177, 1-(6-bromo-1H,1′H-[2,2′-biindol]-3-yl)-2,2,2-trifluoroethan-1-one] | > 1 | 2 (≈ 4.91 µM) |  | MIC (S. aureus ATCC 29213; [3]): 1 µg/mL (≈ 2.46 µM) |
